Values of other authors in patent publication US20260146034A1, “1H-CYCLOPENTA[B]BENZOFURAN DERIVATIVES FOR THE PREVENTION AND TREATMENT OF VIRUS DISEASES” (priority 2022, published 2026).

What was measured:
coronavirus = conditions: J. Virology, 2011, 6381
SARS-COV-2 = conditions: eFFECTOR's Therapeutic, Apr. 30, 2020
[1] = tested on: corona viruses, SARS and MERS virus
[2] = tested on: RNA helicase enzyme elF4A; conditions: previous studies

Compound: 4E2RCat
- blocking coronavirus replication (coronavirus): capable of blocking coronavirus replication

Compound: COc1cc2c(c(OC)n1)[C@]1(O)[C@H](O)[C@H](CN(C)C)[C@@H](c3ccccc3)[C@]1(c1ccc(C#N)cc1)O2 [Zotatifin]
- anti viral activity against SARS-COV-2 (SARS-COV-2): shows anti viral activity

Compound: Silvesterol
- antiviral activity against corona viruses, SARS and MERS virus [1]: broadspectrum antiviral activity
- inhibition of the RNA helicase enzyme elF4A [2]: potent and selective inhibitor
